A short description of data set [1]: Single-dose pharmacokinetics of EE and LN. The data set is classed as in vivo, human. The conditions noted are these: for Tmax: single oral Microgynon 30 alone, median (range), n = 19.
The conditions of data set [2]: cited from earlier work.
The conditions of data set [3]: tofacitinib 30 mg twice daily; cited from earlier work.
Where [4] appears, read: female, human, plasma, oral, adjusted geometric mean, Reference (Microgynon 30 alone).
The mark [5] stands for this setting: tofacitinib 30 mg twice daily vs Microgynon 30 alone.
Where [6] appears, read: Microgynon 30 + tofacitinib / Microgynon 30 alone.

A word on the AUC(0-inf): it is total exposure, with the tail of the curve extrapolated. Low readings indicate less exposure, high ones more exposure. The compound `C#C[C@]1(O)CC[C@H]2[C@@H]3CCc4cc(O)ccc4[C@H]3CC[C@@]21C` [Ethinylestradiol, ethinylestradiol] came in with an AUC(0-inf) in data set [1] (setting [4]) of 0.716 ng·h/mL. The Tmax in data set [1] is on record as 1.5 (1.0–2.1) h. For the same compound, in data set [1] (setting [5]), the “Decrease of maximal plasma concentration when coadministered with tofacitinib” value amounted to 10.4% and the “Increase of AUC∞ in the presence of tofacitinib” value amounted to 6.6%.
Usually AUC(0-t) stands for the area under the concentration-time curve up to a stated or last time point. As a reminder, the Cmax is the peak of the concentration-time curve. `C#C[C@]1(O)CC[C@H]2[C@@H]3CCC4=CC(=O)CC[C@@H]4[C@H]3CC[C@@]21CC` [Levonorgestrel, levonorgestrel]: in data set [1] (setting [6]), the “Ratio (Test/Reference) of adjusted geometric means, AUClast” value was 104.60%; the “Ratio (Test/Reference) of adjusted geometric means, AUC∞” value came to 100.87%; the “Ratio (Test/Reference) of adjusted geometric means, Cmax” value is given as 112.19%. For the same compound, the AUC(0-t) in data set [1] (female, human, plasma, oral, AUClast, adjusted geometric mean, Reference (Microgynon 30 alone)) is 35 ng·h/mL. Moreover, the AUC(0-inf) in data set [1] (setting [4]) is 44.6 ng·h/mL. For the same compound, the peak level in data set [1] (female, human, plasma, oral, Cmax, adjusted geometric mean, Reference (Microgynon 30 alone)) (Cmax) was 3.78 ng/mL. For the same compound, the Tmax in data set [1] is reported as 1.0 (1.0–2.0) h. Moreover, in data set [1] (setting [5]), the “Increase of AUC∞ in the presence of tofacitinib” value is 0.9% and the “Increase of maximal plasma concentration when coadministered with tofacitinib” value is 12.2%.
Consider `C[C@@H]1CCN(C(=O)CC#N)C[C@@H]1N(C)c1ncnc2[nH]ccc12` [Tofacitinib], for which the “Effect on the pharmacokinetics of EE and LN” value in data set [1] (tofacitinib 30 mg twice daily for 11 days, healthy women) was “no clinically relevant net inhibitory or inductive effect”. In addition, in data set [2], the “Nonrenal share of clearance” value was 70%, the “Renally excreted share of clearance” value is listed as 30% and the “Share of metabolism by CYP3A4” value is “approximately 55%”.
As to `Cc1ncc2n1-c1ccc(Cl)cc1C(c1ccccc1F)=NC2` [midazolam], in data set [3], the “Change in Cmax when coadministered with tofacitinib” value was “no change” and the “Change in total exposure (AUC∞) when coadministered with tofacitinib” value is on record as “no change”.
